From patent US20240158348A1, “HERBICIDAL CYCLIC AMIDES N-SUBSTITUTED WITH A HALOALKYLSULFONYLANILIDE GROUP” (FMC Corporation, priority 2021, published 2024)

Tests used:
Format in all cases: in vivo
[1] = tested on: goosegrass (Eleusine indica); assay: Test C preemergence, goosegrass; conditions: 0 is no effect, 100 is complete control
How it was run: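 Herbicidal effect was estimated visually on a 0–100 scale 10 or 12 days after spraying. Formulation: non-phytotoxic solvent mixture with surfactant. Timing: directed soil spray after sowing, or postemergence on seedlings bearing one or two leaves.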

soybean (Glycine max) = assay: Test C preemergence, soybean; conditions: 0 is no effect, 100 is complete control
How it was run: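 Plants grown in a sand and loam soil blend received the formulated test chemicals either as a preemergence soil-directed spray or postemergence at 2 to 10 cm height. After 10 or 12 greenhouse days, injury was assessed visually, with 100 meaning complete control.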

[2] = tested on: galium (catchweed bedstraw, Galium aparine); assay: Test C postemergence, galium; conditions: for Galium plant response rating: visual injury, 0 to 100 scale (0 no effect, 100 complete control); for Plant response rating (0 to 100 scale), Galium: 0 is no effect, 100 is complete control
[3] = tested on: blackgrass (Alopecurus myosuroides); assay: Test C postemergence, blackgrass; conditions: 125 g ai/ha Postemergence; 0 is no effect, 100 is complete control

Structure (SMILES) | Plant response rating (0 to 100 scale), Goosegrass ([1]; 31 g ai/ha Preemergence) | Plant response rating (0 to 100 scale), Goosegrass ([1]; 125 g ai/ha Preemergence) | Plant response rating (0 to 100 scale), Soybean (soybean (Glycine max); 31 g ai/ha Preemergence) | Plant response rating (0 to 100 scale), Soybean (soybean (Glycine max); 125 g ai/ha Preemergence) | Galium plant response rating ([2]; 31 g ai/ha Postemergence) | Plant response rating (0 to 100 scale), Galium ([2]; 125 g ai/ha Postemergence) | Plant response rating (0 to 100 scale), Blackgrass [3] | Galium plant response rating ([2]; 125 g ai/ha Postemergence)
Cc1cc(C)c(N2CCC(OC3CC3)C2=O)cc1NS(=O)(=O)C(F)(F)F (single isomer, unassigned) [Compound 29] | 100 | 100 | 90 | 100 | 80 | 100 | 70 | –
Cc1cc(C)c(N2CCC(OC3CC3)C2=O)cc1NS(=O)(=O)C(F)(F)F (single isomer, unassigned) [Compound 30] | 90 | 100 | 80 | 90 | 80 | 100 | 90 | –
CO/N=C1\CCN(c2cc(NS(=O)(=O)C(F)(F)F)c(C)cc2C)C1=O [Compound 9, 1,1,1-trifluoro-N-[5-[3-(methoxyimino)-2-oxo-1-pyrrolidinyl]-2,4-dimethylphenyl]methanesulfonamide] | 100 | 100 | 80 | 100 | 90 | 100 | 90 | –
Cc1cc(C)c(N2CC/C(=N\O)C2=O)cc1NS(=O)(=O)C(F)(F)F [Compound 10, 1,1,1-trifluoro-N-[5-[3-(hydroxyimino)-2-oxo-1-pyrrolidinyl]-2,4-dimethylphenyl]methanesulfonamide] | 80 | 100 | 60 | 70 | 100 | 100 | 90 | –
C=CCO/N=C1\CCN(c2cc(NS(=O)(=O)C(F)(F)F)c(C)cc2C)C1=O [Compound 11] | 100 | 100 | 50 | 90 | 80 | 100 | 90 | –
C#CCO/N=C1\CCN(c2cc(NS(=O)(=O)C(F)(F)F)c(C)cc2C)C1=O [Compound 13, N-[2,4-dimethyl-5-[2-oxo-3-[(2-propyn-1-yloxy)imino]-1-pyrrolidinyl]phenyl]-1,1,1-trifluoromethanesulfonamide] | 90 | 100 | 80 | 100 | 100 | 100 | 90 | –
Cc1cc(C)c(N2CCC(OCC3CC3(F)F)C2=O)cc1NS(=O)(=O)C(F)(F)F (stereo not drawn) [Compound 41] | 90 | 100 | 60 | 100 | 100 | – | – | 100
Cc1cc(C)c(N2CCC(OCC3CCCO3)C2=O)cc1NS(=O)(=O)C(F)(F)F (stereo not drawn) [Compound 42] | 50 | 100 | 0 | 90 | 50 | – | – | 90
Cc1cc(C)c(N2CCC(OCC3CCC3)C2=O)cc1NS(=O)(=O)C(F)(F)F (stereo not drawn) [Compound 43] | 60 | 100 | 10 | 90 | 70 | – | – | 90
Cc1c(NS(=O)(=O)C(F)(F)F)cc(N2CCC(OC3CCC3)C2=O)c(C)c1C (stereo not drawn) [Compound 45] | 100 | 100 | 50 | 100 | 100 | – | – | 100
Cc1c(NS(=O)(=O)C(F)(F)F)cc(N2CCC(OC3CC3)C2=O)c(C)c1C (stereo not drawn) [Compound 47] | 100 | 100 | 50 | 90 | 80 | – | – | 90
